Molecules are shown by their SMILES.

The subject of the assay is MDA-MB-436 cells. The experiment in a line: Inhibition of proliferation of human breast cancer MDA-MB-436 cell line (CCK-8, 7 days). It counts as cell-based. The settings on record: Homo sapiens, 168 h, proliferation of MDA-MB-436, 7 days. As for the experimental part: The cells were cultured in complete medium (DMEM medium +10% FBS+Insulin+glutathione). When the confluence reached about 80%, cells were digested and gently dispensed from the bottom of the dish with a 1 mL pipette. Cell suspension was collected and centrifuged at 500 rpm for 3 min. The supernatant was discarded, and the cell pellet were re-suspended in complete medium. The cells were seeded into a culture dish at an appropriate proportion, and then cultured in a 5% CO2 incubator at 37° C. The assay was carried out when the cells were in optimum condition and the confluence was reached 80%. Cells were harvested in the logarithmic growth phase by using 1 mL pipette gently and then centrifugated at 500 rpm for 3 min. The cells were resuspended by using refresh medium after removing the supernatant and then the cells were counted. The cells were seeded at 3000/well in a 96 well plate and incubated at 37° C. 5% CO2 incubator overnight. In the second day, cells were treated with compound at 8 serially diluted dose with 1000×final concentration in 100% DMSO. The compound was prepared as below: 1000×dilution tested compound solution to 40×test compound solution by adding 5μL, 1000×compound solution to 120 μL Medium (25-fold dilution). The solution was mixed by oscillation. DMSO was used as the control.
The medium was removed from the wells in the plate after the plate was taken out from incubator. Then, fresh medium of 195 μL/per well was added to the 96 well plate. 5μL/per well of 40×test compound solution was added into the 96 well plate. Finally, the plate was incubated for 7 days in a 37° C. 5% CO2 incubator. The medium containing compound was changed once on the fourth day. After 7 days, 20 μL of CCK-8 was added to each well and shake gently, then was cultured for 4 hours. The plate was shaken for 5 min after incubation, the absorbance values of 450 nm. and 650nm wavelengths were recorded respectively (OD=absorbance value of 450 nm−absorbance value of 650 nm) by using the multifunction readout instrument.
Data were analyzed by software GraphPad Prism 6.0. The inhibitory activity of compounds on cell proliferation was plotted using cell survival rate against the compound concentration as coordinates. Cell survival rate %=(ODcompound−ODbackground)/(ODDMSO−ODbackground)×100. The IC50 value was fitted by the s-shaped dose response curve equation: Y=100/(1+10^(log C−log IC50)), and C was the compound concentration.
Table 2 summarizes the inhibitory effect data (IC50) of the compounds on the proliferation of human breast cancer cells MDA-MB-436, wherein ++++ indicates 1<IC50≤10 nM; +++ indicates 10 nM<IC50≤100 nM; ++ indicates 100 nM<IC50≤1 μM; + indicates IC50>1 μM.
In the case of `CCn1c(=O)[nH]c2cc(CN3CCN(c4cnc(C(=O)NC)c(C)c4)CC3)ccc2c1=O` [Example 51, 5-(4-((3-ethyl-2,4-dioxo-1,2,3,4-tetrahydroquinazolin-7-yl)methyl)piperazin-1-yl)-N,3-dimethylpicolinamide], the IC50 (usually the point on the concentration scale where inhibition reaches its midpoint) was over 1000 nM.

Compound `CCn1c(=O)[nH]c2cc(CN3CCN(c4ccc5cc[nH]c5c4)CC3)ccc2c1=O` [Example 110, 7-((4-(1H-indol-6-yl)piperazin-1-yl)methyl)-3-ethylquinazoline-2,4(1H,3H)-dione] came in with a half-inhibitory concentration (IC50) of over 1000 nM. The figure for `CCn1c(=O)[nH]c2cc(CN3CCN(c4ccc(C(=O)NC)nc4F)CC3)cc(Cl)c2c1=O` [Example 136, 5-(4-((5-chloro-3ethyl-2,4-dioxo-1,2,3,4-tetrahydroquinazolin-7-yl)methyl)piperazin-1-yl)-6-fluoro-N-methylpicolinamide] is 1 to 10 nM. The figure for `CCn1c(=O)[nH]c2cc(CN3CCN(c4ccc(C(=O)NC)nc4Cl)CC3)c(C)cc2c1=O` [Example 66, 6-chloro-5-(4-((3-ethyl-6-methyl-2,4-dioxo-1,2,3,4-tetrahydroquinazolin-7-yl)methyl)piperazin-1-yl)-N-methylpicolinamide] is 100 to 1000 nM; for `CCn1c(=O)[nH]c2cc(CN3CCN(c4ccc(C(=O)NC)nc4C)CC3)ncc2c1=O` [Example 81, 5-(4-((3-ethyl-2,4-dioxo-1,2,3,4-tetrahydropyrido[4,3-d]pyrimidin-7-yl)methyl)piperazin-1-yl)-N,6-dimethylpicolinamide] it is 10 to 100 nM; for `CCN1Cc2ncc(CN3CCN(c4ccc(C(=O)NC)nc4)CC3)cc2NC1=O` [Example 144, 5-(4-((3-ethyl-2-oxo-1,2,3,4-tetrahydropyrido[3,2-d]pyrimidin-7-yl)methyl)piperazin-1-yl)-N-methylpicolinamide] it is 10 to 100 nM.

As to `CCn1c(=O)[nH]c2cc(-c3cccc(C(=O)Nc4ccc(C(=O)NC)nc4)c3)cnc2c1=O` [Example 45, 5-(3-(3-ethyl-2,4-dioxo-1,2,3,4-tetrahydropyrido[3,2-d]pyrimidin-7-yl)benzamido)-1-methylpicolinamide], the IC50 was over 1000 nM. The figure for `CCn1c(=O)[nH]c2cc(CN3CCN(c4ccc(C(=O)NC5CC5)nc4F)CC3)cc(F)c2c1=O` [Example 141, N-cyclopropyl-5-(4-((3-ethyl-5-fluoro-2,4-dioxo-1,2,3,4-tetrahydroquinazolin-7-yl)methyl)piperazin-1-yl)-6-fluoropicolinamide] is 1 to 10 nM; for `CCn1c(=O)[nH]c2cc(CN3CCN(c4ccc(C(=O)NC)nc4Br)CC3)ccc2c1=O` [Example 94, 6-bromo-5-(4-((3-ethyl-2,4-dioxo-1,2,3,4-tetrahydroquinazolin-7-yl)methyl)piperazin-1-yl)-N-methylpicolinamide] it is 10 to 100 nM. The figure for `CCn1c(=O)[nH]c2cc(CN3CCN(c4ccc(C(=O)NC)cc4)CC3)ccc2c1=O` [Example 68, 4-(4-((3-ethyl-2,4-dioxo-1,2,3,4-tetrahydroquinazolin-7-yl)methyl)piperazin-1-yl)-N-methylbenzamide] is over 1000 nM. The figure for `CCN1Cc2ccc(CN3CCN(c4ccc(C(=O)NC5CC5)nc4Cl)CC3)cc2NC1=O` [Example 132, 6-chloro-N-cyclopropyl-5-(4-((3-ethyl-2-oxo-1,2,3,4-tetrahydroquinazolin-7-yl)methyl)piperazin-1-yl)picolinamide] is 1 to 10 nM; for `CCn1c(=O)[nH]c2cc(CN3CCN(c4ccc(C(=O)NC)nc4C)CC3)c(Cl)cc2c1=O` [Example 53, 5-(4-((6-chloro-3-ethyl-2,4-dioxo-1,2,3,4-tetrahydroquinazolin-7-yl)methyl)piperazin-1-yl)-N,6-dimethylpicolinamide] it is over 1000 nM. `CCn1c(=O)[nH]c2cc(CN3CCN(c4ncc(C(=O)NC)cc4C)CC3)ccc2c1=O` [Example 79, 6-(4-((3-ethyl-2,4-dioxo-1,2,3,4-tetrahydroquinazolin-7-yl)methyl)piperazin-1-yl)-N,5-dimethylnicotinamide] displayed an IC50 of over 1000 nM. The figure for `CCn1c(=O)[nH]c2cc(CN3CCN(c4ccc(C(=O)NC)cc4Cl)CC3)ccc2c1=O` [Example 70, 3-chloro-4-(4-((3-ethyl-2,4-dioxo-1,2,3,4-tetrahydroquinazolin-7-yl)methyl)piperazin-1-yl)-N-methylbenzamide] is over 1000 nM; for `CNC(=O)c1ccc(N2CCN(Cc3ccc4c(=O)n(C)c(=O)[nH]c4c3F)CC2)c(F)n1` [Example 138, 6-fluoro-5-(4-((8-fluoro-3-methyl-2,4-dioxo-1,2,3,4-tetrahydroquinazolin-7-yl)methyl)piperazin-1-yl)-N-methylpicolinamide] it is 10 to 100 nM; for `CCNC(=O)c1ccc(N2CCN(Cc3ccc4c(=O)n(C)c(=O)[nH]c4c3)CC2)c(C)n1` [Example 101, N-ethyl-6-methyl-5-(4-((3-methyl-2,4-dioxo-1,2,3,4-tetrahydroquinazolin-7-yl)methyl)piperazin-1-yl)picolinamide] it is 100 to 1000 nM. The figure for `CNC(=O)c1ccc(N2CCN(Cc3cc(F)c4c(=O)n(C)c(=O)[nH]c4c3)CC2)c(C)n1` [Example 105, 5-(4-((5-fluoro-3-methyl-2,4-dioxo-1,2,3,4-tetrahydroquinazolin-7-yl)methyl)piperazin-1-yl)-N,6-dimethylpicolinamide] is 100 to 1000 nM; for `CCn1c(=O)[nH]c2cc(CN3CCN(c4ccc(C(=O)NC)nc4Cl)CC3)c(Cl)cc2c1=O` [Example 65, 6-chloro-5-(4-((6-chloro-3-ethyl-2,4-dioxo-1,2,3,4-tetrahydroquinazolin-7-yl)methyl)piperazin-1-yl)-N-methylpicolinamide] it is 100 to 1000 nM; for `CCn1c(=O)[nH]c2cc(CN3CCN(c4cnc(C(=O)NC)cc4C)CC3)ccc2c1=O` [Example 50, 5-(4-((3-ethyl-2,4-dioxo-1,2,3,4-tetrahydroquinazolin-7-yl)methyl)piperazin-1-yl)-N,4-dimethylpicolinamide] it is over 1000 nM. In turn, `CCNC(=O)c1ccc(N2CCN(Cc3ccc4c(=O)n(C)c(=O)[nH]c4c3)CC2)c(Cl)n1` [Example 100, 6-chloro-N-ethyl-5-(4-((3-methyl-2,4-dioxo-1,2,3,4-tetrahydroquinazolin-7-yl)methyl)piperazin-1-yl)picolinamide] had a half-inhibitory concentration (IC50) of 100 to 1000 nM.

With `CNC(=O)c1ccc(N2CCN(Cc3ccc4c(=O)n(C)c(=O)[nH]c4c3)CC2)c(C)n1` [Example 99, N,6-dimethyl-5-(4-((3-methyl-2,4-dioxo-1,2,3,4-tetrahydroquinazolin-7-yl)methyl)piperazin-1-yl)picolinamide], the IC50 is 10 to 100 nM. The figure for `CCN1Cc2c(F)cc(CN3CCN(c4ccc(C(=O)NC)nc4Cl)CC3)cc2NC1=O` [Example 120, 6-chloro-5-(4-((3-ethyl-5-fluoro-2-oxo-1,2,3,4-tetrahydroquinazolin-7-yl)methyl)piperazin-1-yl)-N-methylpicolinamide] is 10 to 100 nM.

`CCn1c(=O)[nH]c2cc(CN3CCN(c4ccc(C(=O)NC)nc4OC)CC3)cnc2c1=O` [Example 109, 5-(4-((3-ethyl-2,4-dioxo-1,2,3,4-tetrahydropyrido[3,2-d]pyrimidin-7-yl)methyl)piperazin-1-yl)-6-methoxy-N-methylpicolinamide] returned an IC50 of 100 to 1000 nM. The figure for `CNC(=O)c1ccc(N2CCN(Cc3ccc4c(=O)n(C)c(=O)[nH]c4c3)CC2)c(Cl)n1` [Example 98, 6-chloro-N-methyl-5-(4-((3-methyl-2,4-dioxo-1,2,3,4-tetrahydroquinazolin-7-yl)methyl)piperazin-1-yl)picolinamide] is 100 to 1000 nM; for `CCn1c(=O)[nH]c2cc(CN3CCN(c4ccc5cn[nH]c5c4)CC3)ccc2c1=O` [Example 111, 7-((4-(1H-indazol-6-yl)piperazin-1-yl)methyl)-3-ethylquinazoline-2,4(1H,3H)-dione] it is over 1000 nM; for `CCN1Cc2c(F)cc(CN3CCN(c4ccc(C(=O)NC)nc4F)CC3)cc2NC1=O` [Example 134, 5-(4-((3-ethyl-5-fluoro-2-oxo-1,2,3,4-tetrahydroquinazolin-7-yl)methyl)piperazin-1-yl)-6-fluoro-N-methylpicolinamide] it is 10 to 100 nM. Take `CCNC(=O)c1ccc(N2CCN(Cc3cnc4c(=O)n(CC)c(=O)[nH]c4c3)CC2)c(Cl)n1` [Example 102, 6-chloro-N-ethyl-5-(4-((3-ethyl-2,4-dioxo-1,2,3,4-tetrahydropyrido[3,2-d]pyrimidin-7-yl)methyl)piperazin-1-yl)picolinamide]: the IC50 was in the range of 10 to 100 nM.

Source of the values: patent publication US20240208969A1, “SUBSTITUTED FUSED BICYCLIC COMPOUNDS AS PARP INHIBITORS AND THE USE THEREOF” (IMPACT THERAPEUTICS (SHANGHAI), INC., priority 2021, published 2024).
